# Source: patent US8980844B2, “Peptide having antibacterial or anti-inflammatory activity and pharmaceutical composition containing the same as an active ingredient” (Nano Intelligent Biomedical Engineering Corporation Co. Ltd., priority 2010, dated 2015)
# Counter-ions that a name gives are not always drawn. No end group written: not given here.
# B1: rhHB-EGF: recombinant human HB-EGF, comparator growth factor (protein, UniProt Q99075 63-148, looked up)
# Heparin-binding EGF-like …: DLQEADLDLLRVTLSSKPQALATPNKEEHGKRKKKGKGLGKKRDPCLRKYKDFCIHGECKYVKELRAPSCICHPGYHGERCHGLSL
# Assays:
# Format in all cases: cell-based
# [1] = tested on: Prevotella intermedia, Actinomyces israelii, Fusobacterium nucleatum, Staphylococcus aureus subsp aureus, Streptococcus pyogenes, Staphylococcus epidermidis; experiment: Antibacterial activity by liquid dilution method (colony count); conditions: liquid dilution method, 1, 10 and 100 μg/ml, 37° C. for 1 hour, number of colonies counted; FIG. 1
# Description: In order to evaluate the antibacterial effects of the peptides having the amino acid sequences of SEQ ID NOS: 1 to 4, measurement of the antibacterial activities of the peptides was carried out using a liquid dilution method. Periodontal pathogens, including Prevotella intermedia, Actinomyces israelii, and Fusobacterium nucleatum, were cultured in tryptic soy broth. Staphylococcus aureus subsp aureus and Streptococcus pyogenes were curtured in trypticase soy broth, and Staphylococcus epidermidis was curtured in nutrient liquid medium. After the above bacterial strains had been cultured until the absorbance at 620 nm reached 1, the cells were collected and used in the test. […]
# In order to measure the antibacterial activities of the peptides using the liquid dilution method, 1 ml of distilled water was placed in a fine tube, after which 10 μl of the diluted bacterial cell solution was placed in the tube, and then 50 μl of the solution was plated on plate medium and used as a control. Meanwhile, plate medium was treated with each of the antibacterial peptides at concentrations of 1 μg/ml, 10 μg/ml and 100 μg/ml at 37° C. for 1 hours, after which 50 μl of the bacterial cell solution was plated on the plate medium, and the number of colonies produced was counted. […]
# [2] = tested on: COX-2 expression in RAW 264.7 cells; experiment: Western blot analysis of COX-2; conditions: 1 hour pretreatment, LPS 10 ng/ml, 8 hours, FIG. 4
# Description: (§1) RAW 264.7 cells obtained from ATCC (American Type Culture Collection) were incubated in a CO2 incubator (supplied with 5% CO2 and 95% air) with DMEM (Dulbecco's modified Eagle medium) medium containing 10% FBS and 100 units/ml of antibiotics (penicillin and streptomycin) at 37° C.
# (§2) The incubated RAW 264.7 cells were treated with each of the peptides having the amino acid sequences of SEQ ID NOS: 1 to 4 for 1 hour, and then treated with LPS (10 ng/ml). After 8 hours, a protein of each of the cytosol and the nucleus was collected and compared with the changes in expressions of iNOS and COX-2 caused by hBD3, rhPDGF-BB and rhHB-EGF. The collected protein was identified by SDS-PAGE and transferred to a nitrocellulose membrane using a blotting kit. The membrane was blotted with each of the primary antibodies iNOS and COX-2 and exposed to HRP (horseradish peroxidase)-conjugated secondary antibody. Then, the membrane was allowed to react with an ECL western blot detection reagent and exposed to an X-ray film to detect signals, thereby measuring the expressions of the inflammation-associated enzymes iNOS and COX-2.
# [3] = tested on: NF-κB expression in RAW 264.7 cells; experiment: Western blot analysis of NF-κB; conditions: 1 hour pretreatment, LPS 10 ng/ml, 8 hours, FIG. 3
# Description: In order to examine association with signals, the expression of the allergic inflammation-associated enzyme NF-κB associated with the NF-κB signal was measured.
# as §1
# The incubated RAW 264.7 cells were treated with each of the peptides having the amino acid sequences of SEQ ID NOS: 1 to 4 for 1 hour, and then treated with LPS (10 ng/ml). After 8 hours, a protein of each of the cytosol and the nucleus was collected and compared with the changes in expression of NF-κB caused by hBD3, rhPDGF-BB and rhHB-EGF. The collected protein was identified by SDS-PAGE and transferred to a nitrocellulose membrane using a blotting kit. The membrane was blotted with the primary antibody NF-κB and exposed to HRP (horseradish peroxidase)-conjugated secondary antibody. Then, the membrane was allowed to react with an ECL western blot detection reagent and exposed to an X-ray film to detect a signal, thereby measuring the expression of the inflammation-associated enzyme NF-κB.
# [4] = tested on: iNOS expression in RAW 264.7 cells; experiment: Western blot analysis of iNOS; conditions: 1 hour pretreatment, LPS 10 ng/ml, 8 hours, FIG. 4
# Description: as §1, §2
# [5] = tested on: Basophilic leukemia RBL-2H3 cells; experiment: Change in release of β-hexosaminidase (degranulation, anti-allergic effect); conditions: RBL-2H3 cells sensitised with anti-DNP IgE, challenged with DNP-HAS; concentration of 100 μM; FIG. 2
# Description: In order to examine the anti-allergic effects of the peptides having the amino acid sequences of SEQ ID NOS: 1 to 4, the changes in release of β-hexosaminidase by the peptides were measured.
# Basophilic leukemia RBL-2H3 cells obtained from ATCC (American Type Culture Collection) were cultured in a CO2 incubator (supplied with 5% CO2 and 95% air) with DMEM (Dulbecco's modified Eagle medium) medium containing 10% FBS (heat inactivated fetal bovine serum) and 100 units/ml of antibiotics (penicillin and streptomycin) at 37° C. for 24 hours. Specifically, the cells were cultured in a 96-well plate at a density of 5×10^4 cells/well, and then the supernatant was removed. […] Then, the absorbance at 405 nm was measured and the change in release of β-hexosaminidase was determined. The method of measuring the amount of β-hexosaminidase is known to be sensitive and accurate compared to a method of quantifying histamine, and thus has recently been frequently used in studies on degranulation. For comparison, In addition, the changes in release of β-hexosaminidase by KF and growth factors (hBD3, rhPDGF-BB and rhHB-EGF), which are used as agents for treating allergic diseases, were measured in the same manner as described above and compared with the changes caused by the peptides.
Molecule,antibacterial activity [1],LPS-induced expression of COX-2 [2],LPS-induced expression of NF-κB [3],LPS-induced expression of iNOS [4],release of β-hexosaminidase [5]
"hBD3: human beta-defensin-3, comparator (GIINTLQKYYCRVRGGRCAVLSCLPKEEQIGKCSTRGRKCCRRKK; ends and bridges not checked; cysteine pairing not given here; UniProt P81534 23-67, looked up)",lower than those of the peptides,no inhibitory effect,not greater than those of the peptides,no inhibitory effect,did not influence the reduction in the release of β-hexosaminidase
"CN1CCC(=C2c3ccccc3CC(=O)c3sccc32)CC1 [KF, ketotifen fumarate, reference compound]",,smaller than the inhibitory effects of the peptides,smaller than the inhibitory effects of the peptides,smaller than the inhibitory effects of the peptides,
B1,lower than those of the peptides,no inhibitory effect,not greater than those of the peptides,no inhibitory effect,did not influence the reduction in the release of β-hexosaminidase
